Data from PubChem BioAssay AID248 (DTP/NCI, 2004).
Several values for one entry are separate records, joined by “and”; a condition that tells them apart may be missing. Equal entries are not always repeated. Inconclusive results and toxic doses are left out. Cut-off read from the data, not from the text of the source: active = T/C of 150% or more; inactive = T/C below 125%.

System: L1210 leukemia ip in BDF1 mice, survival T/C
Test: NCI In Vivo Anticancer Drug Screen. Data for tumor model L1210 Leukemia (intraperitoneal) in B6D2F1 (BDF1) mice
Settings: endpoint: mean survival time, higher = longer survival
Outline: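 Mice bearing the transplanted tumor received compound or vehicle. Survival of the treated group was divided by that of the vehicle-treated control group to give the ratio.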

[1] = dose: 100.0 mg/kg/injection, schedule: Q01DX009 (ip), vehicle: Klucel (hydroxypropylcellulose) (HPC)
[2] = dose: 100.0 mg/kg/injection, schedule: Q04DX003 (ip), vehicle: Klucel (hydroxypropylcellulose) (HPC)
[3] = dose: 200.0 mg/kg/injection, schedule: Q04DX003 (ip), vehicle: Klucel (hydroxypropylcellulose) (HPC)
[4] = dose: 100.0 mg/kg/injection, schedule: Q04DX003 (ip), vehicle: saline with Tween-80
[5] = dose: 200.0 mg/kg/injection, schedule: Q04DX003 (ip), vehicle: saline with Tween-80
[6] = dose: 100.0 mg/kg/injection, schedule: Q01DX009 (ip), vehicle: saline with Tween-80
[7] = dose: 200.0 mg/kg/injection, schedule: Q01DX009 (ip), vehicle: saline with Tween-80
[8] = dose: 400.0 mg/kg/injection, schedule: Q01DX009 (ip), vehicle: saline with Tween-80
[9] = dose: 25.0 mg/kg/injection, schedule: Q04DX002 (ip), vehicle: saline with Tween-80
[10] = dose: 100.0 mg/kg/injection, schedule: Q04DX002 (ip), vehicle: saline with Tween-80
[11] = dose: 200.0 mg/kg/injection, schedule: Q04DX002 (ip), vehicle: saline with Tween-80
[12] = dose: 100.0 mg/kg/injection, schedule: Q04DX003 (ip), vehicle: other
[13] = dose: 50.0 mg/kg/injection, schedule: Q01DX009 (ip), vehicle: saline with Tween-80

Measured: T/C

CN=C(NC)c1ccc(NC(=O)c2cc(C)cc(C(=O)Nc3ccc(C(=NC)NC)cc3)c2)cc1
inactive: dose: 1.88 mg/kg/injection, schedule: Q01DX Z (ip), vehicle: saline 89 % of control | dose: 3.75 mg/kg/injection, schedule: Q01DX Z (ip), vehicle: saline 91 % of control | dose: 7.5 mg/kg/injection, schedule: Q01DX Z (ip), vehicle: saline 91 % of control | dose: 15.0 mg/kg/injection, schedule: Q01DX Z (ip), vehicle: saline 98 % of control and 107 % of control | dose: 30.0 mg/kg/injection, schedule: Q01DX Z (ip), vehicle: saline 101 % of control

Cc1ccc(C(C)C)c(OC(=O)Nc2ccc(S(=O)(=O)N(C)C)cc2)c1
inactive: dose: 100.0 mg/kg/injection, schedule: Q01DX001 (ip), vehicle: saline 103 % of control | dose: 200.0 mg/kg/injection, schedule: Q01DX001 (ip), vehicle: saline 100 % of control | dose: 400.0 mg/kg/injection, schedule: Q01DX001 (ip), vehicle: saline 101 % of control

OC1CCCC/C1=C/c1ccccc1 (centres undefined)
inactive: [1] 101 % of control | [2] 103 % of control | dose: 200.0 mg/kg/injection, schedule: Q01DX009 (ip), vehicle: Klucel (hydroxypropylcellulose) (HPC) 101 % of control | [3] 101 % of control | dose: 400.0 mg/kg/injection, schedule: Q01DX009 (ip), vehicle: Klucel (hydroxypropylcellulose) (HPC) 101 % of control | dose: 400.0 mg/kg/injection, schedule: Q04DX003 (ip), vehicle: Klucel (hydroxypropylcellulose) (HPC) 95 % of control

CCOC(=O)c1nc2cc(C)c(C)cc2[nH]c1=O
inactive: [4] 92 % of control | [5] 99 % of control | dose: 400.0 mg/kg/injection, schedule: Q04DX003 (ip), vehicle: saline with Tween-80 93 % of control

CC1=CC(=O)CC(C)(C)C1
inactive: [6] 101 % of control | [7] 101 % of control | [8] 90 % of control

COc1cccc(C2CCCCC2OS(=O)(=O)c2ccc(C)cc2)c1 (centres undefined)
inactive: dose: 100.0 mg/kg/injection, schedule: Q01DX001 (ip), vehicle: steriod suspending solution 106 % of control | dose: 200.0 mg/kg/injection, schedule: Q01DX001 (ip), vehicle: steriod suspending solution 101 % of control | dose: 400.0 mg/kg/injection, schedule: Q01DX001 (ip), vehicle: steriod suspending solution 91 % of control

CON(C)C(=O)N1c2ccccc2Sc2ccccc21
inactive: [9] 88 % of control | dose: 50.0 mg/kg/injection, schedule: Q04DX002 (ip), vehicle: saline with Tween-80 95 % of control | [10] 103 % of control | [11] 95 % of control

O=c1c2c(oc3c(Cl)cc(Cl)cc13)CCCC2
inactive: dose: 50.0 mg/kg/injection, schedule: Q04DX002 (ip), vehicle: gum acacia 100 % of control | dose: 100.0 mg/kg/injection, schedule: Q04DX002 (ip), vehicle: gum acacia 104 % of control | dose: 200.0 mg/kg/injection, schedule: Q04DX002 (ip), vehicle: gum acacia 104 % of control

Cc1ccc([N+](=O)[O-])cc1NC(=O)NCc1ccc(Cl)cc1
inactive: [6] 87 % of control | [7] 106 % of control | [8] 95 % of control

CCCCSc1nc(SCCCC)nc(SCCCC)n1
inactive: [10] 96 % of control | [11] 111 % of control | dose: 400.0 mg/kg/injection, schedule: Q04DX002 (ip), vehicle: saline with Tween-80 89 % of control

Cc1cccc(Nc2cc(=S)nc(N)[nH]2)c1
inactive: dose: 100.0 mg/kg/injection, schedule: Q01DX Z (ip), vehicle: methylcellulose (MC) 98 % of control | dose: 200.0 mg/kg/injection, schedule: Q01DX Z (ip), vehicle: methylcellulose (MC) 106 % of control

[Cl][Ge]([Cl])([c]1ccccc1)[c]1ccccc1
inactive: dose: 50.0 mg/kg/injection, schedule: Q01DX009 (ip), vehicle: Klucel (hydroxypropylcellulose) (HPC) 96 % of control | [1] 96 % of control | [2] 98 % of control | [3] 94 % of control

CCOc1ccc(NC(=O)CC(C)=O)cc1
inactive: dose: 25.0 mg/kg/injection, schedule: Q04DX003 (ip), vehicle: other 95 % of control | dose: 50.0 mg/kg/injection, schedule: Q04DX003 (ip), vehicle: other 100 % of control | [12] 96 % of control

O=C(O)NC1(c2ccccc2)OC1c1ccccc1 (centres undefined)
inactive: dose: 50.0 mg/kg/injection, schedule: Q01DX001 (ip), vehicle: saline with Tween-80 115 % of control | dose: 100.0 mg/kg/injection, schedule: Q01DX001 (ip), vehicle: saline with Tween-80 98 % of control | dose: 200.0 mg/kg/injection, schedule: Q01DX001 (ip), vehicle: saline with Tween-80 94 % of control

c1ccc(-c2csc3n4ccccc4c[n+]23)cc1
inactive: dose: 6.25 mg/kg/injection, schedule: Q04DX002 (ip), vehicle: saline with Tween-80 97 % of control | dose: 12.5 mg/kg/injection, schedule: Q04DX002 (ip), vehicle: saline with Tween-80 100 % of control | [9] 93 % of control

CC1C(=O)c2cc3c(cc2CCN(C)Cc2c1ccc1c2OCO1)OCO3 (centres undefined)
inactive: dose: 5.0 mg/kg/injection, schedule: Q01DX001 (ip), vehicle: saline 103 % of control | dose: 9.5 mg/kg/injection, schedule: Q01DX001 (ip), vehicle: other 93 % of control | dose: 10.0 mg/kg/injection, schedule: Q01DX001 (ip), vehicle: saline 103 % of control | dose: 19.0 mg/kg/injection, schedule: Q01DX001 (ip), vehicle: other 104 % of control | dose: 20.0 mg/kg/injection, schedule: Q01DX001 (ip), vehicle: saline 101 % of control | dose: 40.0 mg/kg/injection, schedule: Q01DX001 (ip), vehicle: saline 101 % of control

O=C(NNc1ccccc1)NNc1ccccc1 (tested in a mixture with another compound)
inactive: [13] 95 % of control | [6] 95 % of control | [7] 99 % of control

CCCCC(CCC)(CCC)CCN
inactive: dose: 2.0 mg/kg/injection, schedule: Q01DX001 (ip), vehicle: carboxymethylcellulose (CMC) 98 % of control | dose: 2.5 mg/kg/injection, schedule: Q01DX015 (ip), vehicle: carboxymethylcellulose (CMC) 89 % of control | dose: 4.0 mg/kg/injection, schedule: Q01DX001 (ip), vehicle: carboxymethylcellulose (CMC) 103 % of control | dose: 5.0 mg/kg/injection, schedule: Q01DX015 (ip), vehicle: carboxymethylcellulose (CMC) 94 % of control | dose: 8.0 mg/kg/injection, schedule: Q01DX001 (ip), vehicle: carboxymethylcellulose (CMC) 108 % of control | dose: 10.0 mg/kg/injection, schedule: Q01DX015 (ip), vehicle: carboxymethylcellulose (CMC) 93 % of control | dose: 16.0 mg/kg/injection, schedule: Q01DX001 (ip), vehicle: carboxymethylcellulose (CMC) 90 % of control

Cn1cnc(N)c1S(=O)(=O)Nc1cccc2ccccc12
inactive: [12] 100 % of control | dose: 200.0 mg/kg/injection, schedule: Q04DX003 (ip), vehicle: other 102 % of control | dose: 400.0 mg/kg/injection, schedule: Q04DX003 (ip), vehicle: other 101 % of control

O=C(COc1ccc(Cl)c(Cl)c1)NCc1ccc[n+](Cc2ccc(Cl)cc2S(=O)(=O)F)c1
inactive: [4] 100 % of control | [5] 106 % of control

CCOc1ccc(NC(=O)NCCBr)cc1
inactive: [13] 94 % of control | [6] 94 % of control

CCNNC
inactive: dose: 12.5 mg/kg/injection, schedule: Q04DX003 (ip), vehicle: saline 104 % of control | dose: 25.0 mg/kg/injection, schedule: Q04DX003 (ip), vehicle: saline 103 % of control | dose: 50.0 mg/kg/injection, schedule: Q04DX003 (ip), vehicle: saline 101 % of control | dose: 100.0 mg/kg/injection, schedule: Q04DX003 (ip), vehicle: saline 111 % of control | dose: 200.0 mg/kg/injection, schedule: Q04DX003 (ip), vehicle: saline 108 % of control

CCCN(C)N=Nc1ccccc1C(N)=O
inactive: dose: 44.0 mg/kg/injection, schedule: Q01DX009 (ip), vehicle: saline with Tween-80 108 % of control | [13] 113 % of control | dose: 50.0 mg/kg/injection, schedule: Q04DX003 (ip), vehicle: saline with Tween-80 110 % of control | dose: 66.0 mg/kg/injection, schedule: Q01DX009 (ip), vehicle: saline with Tween-80 108 % of control | dose: 100.0 mg/kg/injection, schedule: Q01DX001 (ip), vehicle: other 109 % of control | [4] 111 % of control | dose: 200.0 mg/kg/injection, schedule: Q01DX001 (ip), vehicle: other 113 % of control | [7] 120 % of control | [5] 118 % of control
active: dose: 150.0 mg/kg/injection, schedule: Q01DX009 (ip), vehicle: saline with Tween-80 153 % of control
